Assay results reported in ChEMBL document CHEMBL5543106, “Fragment growth-based discovery of novel TNIK inhibitors for the treatment of colorectal cancer” (Eur J Med Chem, 2024).

Tests used:
Type in all cases: ADME, organism-based
[1] = AUC(0 to t) in BALB/c mouse at 5 mg/kg, iv measured upto 24 hrs by LC-MS/MS analysis; settings: in vivo
[2] = Tmax in BALB/c mouse at 5 mg/kg, iv measured upto 24 hrs by LC-MS/MS analysis; settings: in vivo
[3] = Cmax in BALB/c mouse at 5 mg/kg, iv measured upto 24 hrs by LC-MS/MS analysis; settings: in vivo
[4] = MRT(0 to t) in BALB/c mouse at 5 mg/kg, iv measured upto 24 hrs by LC-MS/MS analysis; settings: in vivo
[5] = Apparent volume of distribution in BALB/c mouse at 5 mg/kg, iv measured upto 24 hrs by LC-MS/MS analysis; settings: in vivo, read-out: Vz
[6] = Bioavailability in BALB/c mouse at 5 mg/kg, iv measured upto 24 hrs by LC-MS/MS analysis; settings: in vivo
[7] = AUC(0 to t) in BALB/c mouse at 10 mg/kg, po measured upto 24 hrs by LC-MS/MS analysis; settings: in vivo
[8] = Tmax in BALB/c mouse at 10 mg/kg, po measured upto 24 hrs by LC-MS/MS analysis; settings: in vivo
[9] = Cmax in BALB/c mouse at 10 mg/kg, po measured upto 24 hrs by LC-MS/MS analysis; settings: in vivo
[10] = MRT(0 to t) in BALB/c mouse at 10 mg/kg, po measured upto 24 hrs by LC-MS/MS analysis; settings: in vivo
[11] = Apparent volume of distribution in BALB/c mouse at 10 mg/kg, po measured upto 24 hrs by LC-MS/MS analysis; settings: in vivo

- AUC(0-t) at 24 h [1]: 27000 ng·h/mL
- Tmax [2]: 4.98 min
- Cmax [3]: 6340 ng/mL
- MRT last at 24 h [4]: 4.46 h
- Vd [5]: 0.846 L/kg
- bioavailability [6]: 84.6%
- AUC(0-t) at 24 h [7]: 45700 ng·h/mL
- Tmax [8]: 1.17 h
- Cmax [9]: 5250 ng/mL
- MRT last at 24 h [10]: 6.11 h
- Vz [11]: 1.41 L/kg
Compound: Cn1cnc(-c2ccc(F)cc2)c1-c1ccc2ncc(C#CC(C)(C)O)cc2c1
